Literature values as cited in patent US5508269A, “Aminoglycoside formulation for aerosolization” (priority 1994, dated 1996).

Settings: aerosol administration, carbenicillin and gentamicin, twenty CF patients; Lancet 1981; cited from earlier work

Compound	health of CF patients (in words)
gentamicin	can improve the health of CF patients
CC1(C)S[C@@H]2[C@H](NC(=O)C(C(=O)O)c3ccccc3)C(=O)N2[C@H]1C(=O)O (some centres unmarked) [carbenicillin]	can improve the health of CF patients
